SMILES strings stand for the structures.

Consider `COC(=O)c1cc2ccccc2c(OC(=O)c2ccccc2C)c1C(=O)OC`, for which the melting point was in the range of 138 to 140 °C.

In turn, `CCCc1c(O)ccc(C(C)=O)c1N` displayed a melting point of 95 to 97 °C. To `Oc1c2cccc1Cc1cccc(c1O)Cc1cccc(c1O)Cc1cccc(c1O)Cc1cccc(c1O)Cc1cccc(c1O)C2` belongs 417 to 418 °C; to `O=C(O)c1c(Cl)ccc2cc(Cl)cnc12`, 274 °C.

As to `CSC(SC)=C(C(C)=O)C(C)=O`, the melting point is 61 °C. For `OCc1ccc(-c2cc(C(F)(F)F)cc(C(F)(F)F)c2)o1` the value was 110 to 113 °C; for `O=C(O)c1ccc(F)cc1Br`, 169 to 173 °C. For `CC(=O)NCO` the value was 55 to 56 °C. To `CC(C)(C)OC(=O)NCc1ccc(C=O)cc1` belongs 83 to 84 °C. `CC1C(=O)C23C4CC5C(C)(C)CCC(=O)C56COC(CC1C2OC(C)(C)O4)C63` (configuration not stated): the melting point was found to be 252 °C.

For `Cn1cc(C(=O)Nc2ccc(F)cc2-c2ccc(Cl)c(Cl)c2)c(C(F)F)n1`, the melting point was determined as 147 °C. `Nc1cc(C(F)(F)F)c(F)cc1Br` showed a melting point of 27 °C. For `O=[N+]([O-])c1cc(Br)ccc1O` the value was 92 °C; for `CCCOC1CCC2C3CCC4=CC(O)CCC4(C)C3CCC12C` (configuration not stated), 123 to 127 °C; for `OCc1ccc(-n2cccn2)cc1`, 76 to 80 °C. Take `CC1(C)OC(=O)C(=NNc2ccc(C(=O)O)cc2)C(=O)O1`: the melting point turned out to be 223 °C.

With `CC(C)=CCCC(C)=CCCC(C)=CCO`, the melting point was determined as 25 °C. The compound `C=CC(Cl)CCl` (configuration not stated) showed a melting point of -61 °C.

Take `O=C(Cl)c1cc2ccccc2s1`: the melting point was determined as 87 °C. The compound `CC(=O)OC1CC2C3CCC(C(C)CCCC(C)C)C3(C)CCC2C2(C)CCC(O)CC12O` (configuration not stated) displayed a melting point of 141 °C.

In the case of `CN(C)c1ccc(C=CC=O)cc1`, the melting point is 140 °C.

Compound `N#Cc1ccc(OCCN2CCOCC2)cc1` registered a melting point of 87 to 90 °C. For `N#Cc1ccc(NN)c(Cl)c1` the value was 127 to 128 °C. To `CN1C(=O)CCS(=O)(=O)C1c1ccc(Cl)cc1` (configuration not stated) belongs 116 °C; to `NC(=O)CC[C@H](NC(=O)OCC1c2ccccc2-c2ccccc21)C(=O)O`, 218 to 223 °C. On to `N#Cc1c(C(F)(F)F)cc(-c2ccccc2)nc1S`, for which the melting point worked out at 181 °C. To `CCOC(=O)c1c(Cl)cc(C)cc1N1CCCC1` belongs 78 to 79 °C; to `COc1cc2c(cc1OC)C(c1ccc(F)cc1)N(C(C)=O)CC2` (configuration not stated), 162 to 164 °C. The compound `NC(=O)c1ccccc1C(N)=O` had a melting point of 222 °C.

With `Nc1c(I)cc(I)c(C(=O)N(CCC(=O)O)c2ccccc2)c1I`, the melting point was 134 °C. For `O=C(OCC1c2ccccc2-c2ccccc21)Oc1c(F)c(F)c(F)c(F)c1F` the value was 85 °C; for `Nc1nc(=O)c2[nH]nnc2[nH]1`, 300 °C.

`COc1ccc(C(F)(F)F)cc1CBr` registered a melting point of 36 °C.

`N#Cc1cc(F)ccc1Cl` had a melting point of 84 °C. To `Oc1cccc2sccc12` belongs 79.8 °C; to `CCN(Cc1ccncc1)C(=O)C(CO)c1ccccc1` (configuration not stated), 96 °C. To `O=Nc1ccc(C(=O)OC2Cc3ccccc32)cc1` (configuration not stated) belongs 119 °C.

Regarding `Nc1ccc(O)cc1[N+](=O)[O-]`, the melting point is 151 °C. The compound `O=C1/C(=C/c2ccccc2O)SC(=S)N1CN(CCCl)CCCl` came in with a melting point of 233 °C. Turning to `O=C(O)C=Cc1cccc(C=CC(=O)O)c1`, the melting point is 280 °C. To `Brc1cnc2[nH]ccc2c1` belongs 179 °C; to `COc1ccc2c(c1)CC1(CCC(=O)C(C(=O)O)C1)C2=O` (configuration not stated), 120 °C.

For the origin of these results see a melting point compilation (Tetko et al.).
